Data set [1] in a line: Ex vivo biodistribution by ICP-MS. Format: in vivo, athymic nude mice. As to the method: (§1) Cu-Pz-Gd(III) was examined as a contrast agent in vivo in an orthotopic breast tumor model in athymic nude mice. MDA-MB-231 breast tumor cells expressing mCherry fluorescent protein were implanted in the mammary fat pad of mice and tumors were allowed to grow to about 5 mm in diameter at which time mice were treated with 450 nmol (50 mg/kg) Cu-Pz-Gd(III) together with saline treated control mice (FIG. 3A).
(§2) Images were acquired at baseline, and 4, 24, and 48 hours after injection of 150 μL of imaging agent via the tail vein. One control animal was injected with saline; the remaining 9 animals were injected with 450 nmol Cu-Pz-Gd(III). Three animals were sacrificed after 4 hour, 24 hour, and 48 hour timepoints, respectively; the organs were collected for ICP-MS (described below) to measure biodistribution.
Mice were sacrificed by CO2 inhalation followed by cervical dislocation. Blood, urine (where possible), tumor, liver, kidney, spleen, heart, lungs, and samples of skin and skeletal muscle were collected for elemental analysis by ICP-MS as described below. In one additional mouse that was not treated with an imaging agent, the tumor was collected and fixed in 10% formalin for histological analysis. […]

Data set [2] deals with MDA-MB-231 orthotopic breast tumor. Kind of data set: In vivo tumor MRI in orthotopic breast tumor model. Set-up: species or system athymic nude mice. As for the experimental part:
as §1
In a separate experiment focusing only on short time points (0-225 min), groups of mice (n=3) were treated with Cu-Pz-Gd(III) (450 nmol, 50 mg/kg), DOTA-Gd(I I I) (900 nmol, 25 mg/kg), and saline as a negative control (FIG. 4). Mice were imaged continuously after tail vein injections. […] Regions of interest (ROIs) were defined outside the periphery of tumors, at the inner rim, and at the center.
MDA-MB-231 cells (1×10^6) expressing mCherry fluorescent protein were inoculated subcutaneously (1:1 v/v matrigel:PBS) on the right mammary fat pad. Cells were maintained in DMEM media supplemented with 10% FBS prior to inoculation. The athymic nude mice, Crl:NU(NCr)-Foxnl^nm, were purchased from Charles River, Portage at 5-6 weeks old and 16-18 gram were allowed to acclimate for 5 days. One week post inoculation, each animal was screened for mCherry fluorescence wavelength using the IVIS small animal fluorescence imaging system to verify presence of the tumor.
Mice were anesthetized in an induction chamber with 3% inhaled isoflurane in oxygen, then transferred to an imaging bed with circulating warm water heating system, MRI compatible respiratory monitoring (SA Instruments, Stony Brook, N.Y.) and 1-2% isoflurane delivered via nosecone to maintain a surgical plane of anesthesia with respiratory rate at 90-100 breaths/min Mice were imaged prone with the tumor centered in a 40 mm diameter quadrature volume coil (Bruker Biospec, Billerica, Mass.). An AutoPac automated positioning system was used to reproducibly center the animals in the MRI system.
Mice were positioned in the MRI scanner as described above and localizer images were acquired. T1 maps were acquired using a FAIR-RARE non-selective inversion recovery sequence with static TR (18,000 ms) and TE (6.1 ms), and variable TI (30.5, 100, 200, 300, 500, 600, 700, 800, 900, 1000, 1100, 1200, 1300, 1400, 1600, 2000, 2500, 3000, 3500, 4000, 4500, 5000, and 6000 ms). Imaging parameters were as follows: field of view (FOV)=40×20 mm^2, matrix size(MTX)=512×133 pixels, number of slices=1, slice thickness=1.0 mm, and 1 average (total scan time=5 m 26 s).
as §2
Mice were positioned in the MRI scanner as described above and localizer images were acquired. To improve signal to noise ratio, reduce respiratory artifacts, and increase tumor coverage, for this study we used a multi slice T1 map acquired using a variable repetition time saturation recovery sequence (RARE-VTR) with static TE (8.2 ms) and variable TR (175, 300, 600, 800, 1200, 2000, 4000 ms). Imaging parameters were as follows: FOV=10×7.5 mm, MTX=80×60, number of axial slices=5, slice thickness=1.0 mm, and 1 average (total scan time=6 min 48 sec). […]

Entries after “also recorded” stand apart in the source; their conditions may differ.

Consider “Cu[Pz(C19H28N8O7Gd)2]. Pz=18,21-bis(2-(1H-1,2,3-triazole-4-yl) ethoxy)-tris-[1,4-dioxino[g,l,q](2R,3R)-2,3-dimethoxy-2,3-dimethyll 25H,27H-benzo[b]porphyrazine; C19H28N8O7Gd=N-methyl-2-aminoacetamide-4,7,10-tris(carboxymethyl)-1,4,7,10-tetraazacyclododecylgadolinium(III)) [Cu-Pz-Gd(III)]”, for which the route of clearance result in data set [1] (biodistribution data by ICP-MS) was “rapidly cleared, primarily through the kidneys; also recorded: primarily through the kidneys and liver; also recorded: cleared through the kidneys and liver”. The tumor accumulation entry in data set [1] (ex vivo biodistribution study) is “accumulates in tumors”. Moreover, the “tumor T1 over time” value in data set [2] (0-225 min after tail vein injection, Cu-Pz-Gd(III) 450 nmol (50 mg/kg), DOTA-Gd(III) 900 nmol (25 mg/kg)) is “persistent; also recorded: becomes progressively shorter; also recorded: steady accumulation of Cu-Pz-Gd(III) in tumor tissue with greater accumulation in the necrotic core; also recorded: decrease in T1 is much more persistent”. For the same substance, the “MR contrast enhancement of tumors” value in data set [2] (450 nmol (50 mg/kg), 4 hour timepoint) is “significant contrast enhancement”. Further, the “time at which T1 of tumor center is roughly equivalent to the rim” value in data set [2] (450 nmol, 50 mg/kg) was determined as 135 min. The “average T1 of tumor regions” value in data set [2] (50 mg/kg, relative to saline treated controls) was “decreased relative to saline-treated controls; also recorded: decreased relative to saline treated controls”.
